Reference: patent US20260294770A1, “FORMULATIONS OF NARINGENIN” (DEBUT BIOTECHNOLOGY, INC., priority 2023, published 2026)

Assays:
LCE5A = test: Upregulation of gene expression and/or activity, 1% naringenin: LCE5A
Text: (§1) In certain embodiments, administration of a composition comprising naringenin leads to up-regulation of LCE5A, KRT77, ALOXE3, KRT1, HPGD, MUCL1, CASP14, WFDC12, KRT10, DNASE1L2, IL37, SERPINB12, HAL, UPK1A, CALML5, LCE2B, and/or MIR205. In certain embodiments, administration of a composition comprising naringenin leads to down-regulation of CCL11, CSF2, IL23A, IL11, BMP6, IL13RA2, C2CD4A, NR4A2, C2CD4B, FGF2, FARP4, GDF15, THBS1, HSPA1A, PTGS2, and/or DKK1. Tables 10 and 11 provide data for upregulation and downregulation respectively of certain genes after administration of compositions comprising 1% naringenin.
Late cornified envelope protein 5A (LCE5A) is involved in formation of outer skin protective barrier. LCE5A may also be involved in keratinization. In certain embodiments, upregulation of expression and/or activity of LCE5A results in improved formation of the outer skin protective barrier. Thus, administration of compositions comprising naringenin, which leads to upregulation of LCE5A, results in increased skin barrier strength. In certain embodiments, the administration of composition comprising naringenin results in at least about 20 to about 50-fold upregulation of expression and/or activity of LCE5A. […]

ALOXE3 = test: Upregulation of gene expression and/or activity, 1% naringenin: ALOXE3
Text: as §1
Arachidonate lipoxygenase 3 (ALOXE3) is involved in formation of epidermis lipids. In particular, ALOXE3 helps add an oxygen molecule to certain fatty acids to produce substances called fatty acid hydroperoxides. The enzyme encoded by ALOXE3 is a hydroperoxide isomerase that synthesizes a unique type of epoxy alcohol (8R-hydroxy-11R,12R-epoxyeicosa-5Z,9E,14Z-trienoic acid) from 12R-hydroperoxyeicosatetraenoic acid (12R-HPETE). This epoxy alcohol can activate the nuclear receptor peroxisome proliferator-activated receptor alpha (PPARalpha), which is implicated in epidermal differentiation. Loss of function of the enzyme encoded by this gene results in ichthyosis, implicating the function of this gene in the differentiation of human skin. […]

WFDC12 = test: Upregulation of gene expression and/or activity, 1% naringenin: WFDC12
Text: as §1

IL37 = test: Upregulation of gene expression and/or activity, 1% naringenin: IL37
Text: as §1

SERPINB12 = test: Upregulation of gene expression and/or activity, 1% naringenin: SERPINB12
Text: as §1
Serine protease inhibitor (SERPINB12) plays a role in protection of epithelial cells. The intracellular serine protease inhibitors (serpins) are an important family of proteins that protect cells form proteinase-mediated injury. SERPINB12 is broadly expressed and is likely to protect cells, including epithelial cells, from both endogenous and exogenous peptidases. In certain embodiments, compositions comprising naringenin leads to upregulation of SERPINB12, which leads to increase in protection of epithelial cells. In certain embodiments, the administration of composition comprising naringenin results in at least about 5 to about 20-fold upregulation of expression and/or activity of SERPINB12. […]

CSF2 = test: Downregulation of gene expression and/or activity, 1% naringenin: CSF2
Text: as §1
Granulocyte-macrophage colony-stimulating factor (CSF2) plays a role in inflammation and arthritis. In certain embodiments of the invention, downregulation of CSF2 leads to an anti-inflammatory activity and/or anti-arthritic activity. In certain embodiments, the administration of composition comprising naringenin results in at least about 10 to about 20-fold downregulation of expression and/or activity of CSF2. In certain embodiments, the administration of composition comprising naringenin results in at least about fifteen (15) fold downregulation of expression and/or activity of CSF2.

FABP4 = test: Downregulation of gene expression and/or activity, 1% naringenin: FABP4
Text: as §1
Fatty acid binding protein 4 (FABP4) plays a role in metabolic inflammation from the fat tissue. FABP4 acts at the interface of metabolic and inflammatory pathways in adipocytes and macrophages and plays important roles in the development of insulin resistance, diabetes mellitus, and atherosclerosis. In certain embodiments, downregulation of FABP4 leads to reduced metabolic inflammation from the fat tissue signaling. In certain embodiments, the administration of composition comprising naringenin results in at least about 2 to about 10-fold downregulation of expression and/or activity of FABP4. In certain embodiments, the administration of composition comprising naringenin results in at least about five (5) fold downregulation of expression and/or activity of FABP4.

DKK1 = test: Downregulation of gene expression and/or activity, 1% naringenin: DKK1; conditions: negative = downregulation
Text: as §1

[1] = ABTS antioxidant assay (aqueous); type: biochemical; conditions: for % Radical Inhibition: aqueous
Text: The 2,2′-Azinobis [3-ethylbenzothiazoline-6-sulfonic acid]-diammonium salt (ABTS) antioxidant assay is designed to evaluate the antioxidant activity of compositions comprising naringenin in an aqueous medium. ABTS+ solution is generated as a free radical and used to measure relative ability of a compound to scavenge free radicals. Reduction of the absorbance at 734 nm was standardized to solvent control as an indication of ABTS+ scavenging.

[2] = Glycation inhibition assay; type: biochemical; conditions: for IC50 glycation inhibition: calculated
Procedure: The assay was conducted to evaluate the glycation inhibition activity of compositions comprising naringenin.
Nonenzymatic glycation can occur when glucose reacts with proteins, forming a Schiff base intermediate that subsequently undergoes Amadori rearrangement to form glycosylated proteins, when they react with skin proteins to form Advanced Glycation End products (AGE). AGE formation can result in loss of skin elasticity and impaired cellular function. The glycation inhibition ability of a compound is measured by change in fluorescence m relative to solvent control.

[3] = tested on: HaCaT immortalized keratinocytes; conditions: 10 μM; cited from earlier work

SMILES: O=C1C[C@@H](c2ccc(O)cc2)Oc2cc(O)cc(O)c21 [naringenin, (2S)-5,7-Dihydroxy-2-(4-hydroxyphenyl)-2,3-dihydro-4H-1-benzopyran-4-one]
- Fold-increase in expression and/or activity of LCE5A (LCE5A): ~33 fold
- Fold-increase in expression and/or activity of ALOXE3 (ALOXE3): ~12 fold
- Fold-increase in expression and/or activity of WFDC12 (WFDC12): 11 fold
- Fold-increase in expression and/or activity of IL37 (IL37): 11 fold
- Fold-increase in expression and/or activity of SERPINB12 (SERPINB12): ~13 fold
- fold downregulation in expression and/or activity of CSF2 (CSF2): ~18 fold
- fold downregulation in expression and/or activity of FABP4 (FABP4): ~7 fold
- Fold-increase (downregulation table) FABP4 (FABP4; negative = downregulation): −7 fold
- Fold-increase (downregulation table) DKK1 (DKK1): −5 fold
- % Radical Inhibition ([1]; 0.0045 % w/w naringenin): 47.50%
- % Radical Inhibition ([1]; 0.009 % w/w naringenin): 55.45%
- % Radical Inhibition ([1]; 0.018 % w/w naringenin): 65.39%
- IC50 antioxidant activity (ABTS) ([1]; aqueous solvent system, calculated): 0.0058 % w/w
- Lowest concentration with antioxidant activity ([1]; aqueous systems): ≤ 0.001 % w/w
- Lowest concentration inhibiting glycation [2]: ≤ 0.002 % w/w
- % Enzyme Inhibition (glycation inhibition) ([2]; 0.008 % w/w naringenin): 27.87%
- % Enzyme Inhibition (glycation inhibition) ([2]; 0.016 % w/w naringenin): 45.49%
- % Enzyme Inhibition (glycation inhibition) ([2]; 0.031 % w/w naringenin): 60.22%
- % Enzyme Inhibition (glycation inhibition) ([2]; 0.0625 % w/w naringenin): 69.05%
- IC50 glycation inhibition [2]: 0.019 % w/w
- IC50 glycation inhibition ([2]; Example 7): 0.019%
- Protection from UVB-induced apoptosis [3]: protecting HaCaT immortalized keratinocytes from UVB-induced apoptosis
